Experimental data published in PMC6273168, “Synthesis and Biological Evaluation of Novel 4-Morpholino-7,8-dihydro-5H-thiopyrano[4,3-d]pyrimidine Derivatives Bearing Phenylpyridine/ Phenylpyrimidine-Carboxamides” (Molecules, 2016).

Columns and labels:
[1] = molecular target: PI3Kα (Homo sapiens, UniProt P42336); assay: PI3Kα Kinase-Glo Luminescent Kinase Assay; type: biochemical
[2] = test system: MCF-7 (human breast cancer) cell line; assay: MTT cell proliferation (cytotoxicity) assay, MCF-7; type: cell-based; conditions: Homo sapiens, MCF7, 72 h, average of two separate determinations
Method: (§1) Taking GDC-0941 as reference compound, the target compounds […], 12a–j, 13a–g and 14a–g ere evaluated for the cytotoxicity against the three cancer cell lines A549, PC-3 and MCF-7 usg 3-(4,5-dimethylthiazolyl-2)-2,5-diphenyltetrazolium bromide (MTT) cell proliferation assays. In addition, one selected compounds 12h was fher evaluated for PI3Kα kinase inhibitory activity. The results, expressed as IC50 values or inhibitory rate, are sumrized in Table 1, Table 2 and Table 3.
(§2) The in vitro cytotoxic activities of all the compounds 11a–11j, 12a–12j, 13a–13g and 14a–14g was evaluated with A549, PC-3 and MCF-7 cell lines by the standard MTT assay, with GDC-0941 as positive control. The cancer cell lines were cultured in minimum essential medium (MEM) supplement with 10% fetal bovine serum (FBS). Approximately 4 × 10^3 cells, suspended in MEM medium, were plated onto each well of a 96-well plate and incubated in 5% CO2 at 37 °C for 24 h. The test compounds at indicated final concentrations were added to the culture medium and the cell cultures were continued for 72 h. Fresh MTT was added to each well at a terminal concentration of […] and incubated with cells at 37 °C for 4 h. The formazan crystals were dissolved in 100 µL DMSO each well, and the absorbency at 492 nm (for absorbance of MTT formazan) and 630 nm (for the reference wavelength) was measured with an ELISA reader. All of the compounds were tested three times in each of the cell lines. The results expressed as inhibition rates or IC50 (half-maximal inhibitory concentration) were the averages of two determinations and calculated by using the Bacus Laboratories Inc. Slide Scanner (Bliss) software (the Bacus Laboratories Inc. Slide Scanner (BLISS) system, Lombard, IL, USA).

[3] = test system: PC-3 (human prostatic cancer) cell line; assay: MTT cell proliferation (cytotoxicity) assay, PC-3; type: cell-based; conditions: Homo sapiens, 72 h, average of two separate determinations
Method: as §1, §2

[4] = test system: A549 (human lung cancer) cell line; assay: MTT cell proliferation (cytotoxicity) assay, A549; type: cell-based; conditions: Homo sapiens, A549, 72 h, average of two separate determinations
Method: as §1, §2

PI3Kα, sequence (P42336 whole entry): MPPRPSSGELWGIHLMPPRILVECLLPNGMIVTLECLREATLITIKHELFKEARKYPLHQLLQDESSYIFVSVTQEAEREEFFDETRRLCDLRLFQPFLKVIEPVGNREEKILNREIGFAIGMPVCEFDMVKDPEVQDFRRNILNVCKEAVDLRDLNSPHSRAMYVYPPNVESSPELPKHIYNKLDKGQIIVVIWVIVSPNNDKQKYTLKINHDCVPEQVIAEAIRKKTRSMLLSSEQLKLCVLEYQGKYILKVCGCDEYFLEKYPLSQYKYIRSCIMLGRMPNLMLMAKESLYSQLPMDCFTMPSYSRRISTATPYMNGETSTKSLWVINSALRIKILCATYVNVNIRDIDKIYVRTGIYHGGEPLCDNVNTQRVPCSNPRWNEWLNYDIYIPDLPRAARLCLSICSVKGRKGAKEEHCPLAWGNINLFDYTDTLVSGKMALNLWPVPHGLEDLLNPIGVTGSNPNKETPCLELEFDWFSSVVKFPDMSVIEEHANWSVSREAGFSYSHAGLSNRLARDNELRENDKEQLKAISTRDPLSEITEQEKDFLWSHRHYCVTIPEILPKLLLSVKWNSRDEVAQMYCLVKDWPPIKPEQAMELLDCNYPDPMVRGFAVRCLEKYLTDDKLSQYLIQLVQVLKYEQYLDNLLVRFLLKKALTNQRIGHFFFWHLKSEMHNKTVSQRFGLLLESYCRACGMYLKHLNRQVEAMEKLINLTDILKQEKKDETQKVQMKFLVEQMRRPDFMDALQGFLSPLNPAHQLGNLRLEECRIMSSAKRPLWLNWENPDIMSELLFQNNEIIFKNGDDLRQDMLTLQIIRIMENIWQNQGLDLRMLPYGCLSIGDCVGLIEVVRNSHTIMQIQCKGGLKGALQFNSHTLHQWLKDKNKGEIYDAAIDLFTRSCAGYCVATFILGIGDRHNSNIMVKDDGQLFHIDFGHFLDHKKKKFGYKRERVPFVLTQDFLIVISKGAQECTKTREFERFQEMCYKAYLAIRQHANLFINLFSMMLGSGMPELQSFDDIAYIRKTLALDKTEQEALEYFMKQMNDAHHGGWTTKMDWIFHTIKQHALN
PI3Kα, sequence (P27986 whole entry partner): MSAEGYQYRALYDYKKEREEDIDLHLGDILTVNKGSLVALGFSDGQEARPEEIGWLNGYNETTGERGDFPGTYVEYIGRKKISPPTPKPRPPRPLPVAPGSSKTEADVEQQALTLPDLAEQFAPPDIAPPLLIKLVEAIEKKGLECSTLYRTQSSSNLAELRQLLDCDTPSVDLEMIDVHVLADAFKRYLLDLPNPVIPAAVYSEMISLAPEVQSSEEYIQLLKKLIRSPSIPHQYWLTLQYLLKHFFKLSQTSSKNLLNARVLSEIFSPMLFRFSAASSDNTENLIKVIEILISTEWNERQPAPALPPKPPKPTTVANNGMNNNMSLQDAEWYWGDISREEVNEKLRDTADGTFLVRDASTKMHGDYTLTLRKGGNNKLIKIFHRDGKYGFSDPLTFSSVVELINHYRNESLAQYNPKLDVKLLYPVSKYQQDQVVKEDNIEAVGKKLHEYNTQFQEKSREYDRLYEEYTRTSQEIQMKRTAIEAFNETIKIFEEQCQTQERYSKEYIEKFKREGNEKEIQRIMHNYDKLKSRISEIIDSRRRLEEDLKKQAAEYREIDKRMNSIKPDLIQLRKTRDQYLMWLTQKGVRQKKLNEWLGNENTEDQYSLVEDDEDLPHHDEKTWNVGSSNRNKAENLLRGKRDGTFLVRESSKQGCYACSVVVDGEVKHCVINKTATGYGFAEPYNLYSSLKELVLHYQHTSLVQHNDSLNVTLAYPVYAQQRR

| IC50 ([1]; Kinase-Glo, 1 µM ATP, 60 min, average of two separate determinations) | inhibitory rate against PI3Ka kinase ([1]; at 10 µM, in words) | melting point | Compound | IC50 ([2]; Table 1) | IC50 ([3]; Table 1) | IC50 ([4]; Table 1) | IC50 ([2]; Table 2) | IC50 ([3]; Table 2) | IC50 ([4]; Table 2) |
| --- | --- | --- | --- | --- | --- | --- | --- | --- | --- |
| 7.39 ± 0.194 µM | moderate | 276.8 to 279.1 °C | CCc1ccc(-c2ccnc(C(=O)Nc3ccc(-c4nc5c(c(N6CCOCC6)n4)CS(=O)(=O)CC5)cc3)c2)cc1 [Compound 12h, N-(4-(4-Morpholino-7,8-dihydro-6,6-dioxide-5H-thiopyrano[4,3-d]pyrimidin-2-yl)phenyl)-4-(4-ethylphenyl) picolinamide] | 9.26 ± 0.82 µM | 11.34 ± 0.11 µM | 8.37 ± 0.1 µM | – | – | – |
| – | – | 287.1 to 289.2 °C | O=C(Nc1ccc(-c2nc3c(c(N4CCOCC4)n2)CS(=O)(=O)CC3)cc1)c1cc(-c2ccc(C(F)(F)F)cc2)ncn1 [Compound 14c] | – | – | – | > 100 µM | > 100 µM | > 100 µM |
| – | – | 233.6 to 235.1 °C | COc1ccc(-c2ccnc(C(=O)Nc3ccc(-c4nc5c(c(N6CCOCC6)n4)CSCC5)cc3)c2)cc1 [Compound 11i, N-(4-(4-Morpholino-7,8-dihydro-5H-thiopyrano[4,3-d]pyrimidin-2-yl)phenyl)-4-(4methoxyphenyl) pyridine-carboxamide] | 32.4 ± 1.84 µM | 65.66 ± 0.61 µM | 27.68 ± 0.1 µM | – | – | – |
| – | – | 251.8 to 255 °C | O=C(Nc1ccc(-c2nc3c(c(N4CCOCC4)n2)CSCC3)cc1)c1cc(-c2ccc(Br)cc2)ncn1 [Compound 13e] | – | – | – | > 100 µM | > 100 µM | > 100 µM |
